According to ChEMBL document CHEMBL3885881, “DrugMatrix”:

Species: Rattus norvegicus
Experiment: DrugMatrix - Regimen: Daily Repeat
Type: toxicity, organism-based, Sprague-Dawley
Design: regimen Daily Repeat, gender Male, age 6-8 weeks
Conditions: in vivo, po, route oral GAVAGE, vehicle 100 % WATER; for ABSOLUTE BASOPHIL / ABSOLUTE EOSINOPHIL / ABSOLUTE LYMPHOCYTE / ABSOLUTE MONOCYTE / ABSOLUTE SEGMENTED NEUTROPHIL / BASOPHIL / EOSINOPHIL / ERYTHROCYTE COUNT / HEMATOCRIT / HEMOGLOBIN / LEUKOCYTE COUNT / LYMPHOCYTE / MEAN CORPUSCULAR HEMOGLOBIN / MEAN CORPUSCULAR HEMOGLOBIN CONCENTRATION / MEAN CORPUSCULAR VOLUME / MONOCYTE / NEUTROPHIL / NUCLEATED RED BLOOD CELLS / PLATELET COUNT: tissue Blood; for ALANINE AMINOTRANSFERASE / ALBUMIN / ALKALINE PHOSPHATASE / ASPARTATE AMINOTRANSFERASE / BLOOD UREA NITROGEN / CARBON DIOXIDE / CHLORIDE / CHOLESTEROL / CREATINE PHOSPHOKINASE / CREATININE / GLUCOSE / LACTATE DEHYDROGENASE / LIPASE / PHOSPHORUS / POTASSIUM / SODIUM / TOTAL BILIRUBIN / TOTAL PROTEIN / URIC ACID: tissue Plasma
[1] = 0 mg/kg, 72 h, dose level Control, time 3 day
[2] = 0 mg/kg, 120 h, dose level Control, time 5 day
[3] = 58 mg/kg, 72 h, dose level Low, time 3 day

Structure (SMILES): NC12CC3CC(CC(C3)C1)C2 [AMANTADINE]
- ABSOLUTE BASOPHIL [1]: 0 CELLS/uL
- ABSOLUTE EOSINOPHIL [1]: 58.83 CELLS/uL
- ABSOLUTE LYMPHOCYTE [1]: 11823.5 CELLS/uL
- ABSOLUTE MONOCYTE [1]: 169 CELLS/uL
- ABSOLUTE SEGMENTED NEUTROPHIL [1]: 815.33 CELLS/uL
- BASOPHIL [1]: 0%
- EOSINOPHIL [1]: 0.5%
- ERYTHROCYTE COUNT [1]: 5.52 x10E6/uL
- HEMATOCRIT [1]: 35.77%
- HEMOGLOBIN [1]: 14.28 G/DL
- LEUKOCYTE COUNT [1]: 12.87 x10E3/uL
- LYMPHOCYTE [1]: 91.67%
- MEAN CORPUSCULAR HEMOGLOBIN [1]: 25.92 pg
- MEAN CORPUSCULAR HEMOGLOBIN CONCENTRATION [1]: 39.95 G/DL
- MEAN CORPUSCULAR VOLUME [1]: 64.85 fL
- MONOCYTE [1]: 1.33%
- NEUTROPHIL [1]: 6.5%
- NUCLEATED RED BLOOD CELLS [1]: 0 /100WBC
- PLATELET COUNT [1]: 1246.17 x10E3/uL
- ALANINE AMINOTRANSFERASE [1]: 66 u/L
- ALBUMIN [1]: 4.25 G/DL
- ALKALINE PHOSPHATASE [1]: 416 u/L
- ASPARTATE AMINOTRANSFERASE [1]: 106.17 u/L
- BLOOD UREA NITROGEN [1]: 12.67 mg/dL
- CARBON DIOXIDE [1]: 31.83 mmol/L
- CHLORIDE [1]: 102.5 MEQ/L
- CHOLESTEROL [1]: 69 mg/dL
- CREATINE PHOSPHOKINASE [1]: 601.83 u/L
- CREATININE [1]: 0.18 mg/dL
- GLUCOSE [1]: 154.5 mg/dL
- LACTATE DEHYDROGENASE [1]: 301.83 u/L
- LIPASE [1]: 11.17 u/L
- PHOSPHORUS [1]: 12.08 mg/dL
- POTASSIUM [1]: 6.12 MEQ/L
- SODIUM [1]: 145.2 MEQ/L
- TOTAL BILIRUBIN [1]: 0.17 mg/dL
- TOTAL PROTEIN [1]: 6.1 G/DL
- URIC ACID [1]: 1.57 mg/dL
- ABSOLUTE BASOPHIL [2]: 0 CELLS/uL
- ABSOLUTE EOSINOPHIL [2]: 19.33 CELLS/uL
- ABSOLUTE LYMPHOCYTE [2]: 12577.83 CELLS/uL
- ABSOLUTE MONOCYTE [2]: 106.33 CELLS/uL
- ABSOLUTE SEGMENTED NEUTROPHIL [2]: 896.5 CELLS/uL
- BASOPHIL [2]: 0%
- EOSINOPHIL [2]: 0.17%
- ERYTHROCYTE COUNT [2]: 5.84 x10E6/uL
- HEMATOCRIT [2]: 36.88%
- HEMOGLOBIN [2]: 14.48 G/DL
- LEUKOCYTE COUNT [2]: 13.6 x10E3/uL
- LYMPHOCYTE [2]: 92.17%
- MEAN CORPUSCULAR HEMOGLOBIN [2]: 24.85 pg
- MEAN CORPUSCULAR HEMOGLOBIN CONCENTRATION [2]: 39.3 G/DL
- MEAN CORPUSCULAR VOLUME [2]: 63.23 fL
- MONOCYTE [2]: 0.83%
- NEUTROPHIL [2]: 6.83%
- NUCLEATED RED BLOOD CELLS [2]: 0 /100WBC
- PLATELET COUNT [2]: 1223.5 x10E3/uL
- ALANINE AMINOTRANSFERASE [2]: 55.33 u/L
- ALBUMIN [2]: 4.08 G/DL
- ALKALINE PHOSPHATASE [2]: 355.5 u/L
- ASPARTATE AMINOTRANSFERASE [2]: 87.67 u/L
- BLOOD UREA NITROGEN [2]: 15.33 mg/dL
- CARBON DIOXIDE [2]: 33.83 mmol/L
- CHLORIDE [2]: 99.67 MEQ/L
- CHOLESTEROL [2]: 72.17 mg/dL
- CREATINE PHOSPHOKINASE [2]: 268.33 u/L
- CREATININE [2]: 0.15 mg/dL
- GLUCOSE [2]: 152.5 mg/dL
- LACTATE DEHYDROGENASE [2]: 212.67 u/L
- LIPASE [2]: 10.83 u/L
- PHOSPHORUS [2]: 11.65 mg/dL
- POTASSIUM [2]: 6.73 MEQ/L
- SODIUM [2]: 142.43 MEQ/L
- TOTAL BILIRUBIN [2]: 0.23 mg/dL
- TOTAL PROTEIN [2]: 6.07 G/DL
- URIC ACID [2]: 1.7 mg/dL
- ABSOLUTE BASOPHIL [3]: 0 CELLS/uL
- ABSOLUTE EOSINOPHIL [3]: 0 CELLS/uL
- ABSOLUTE LYMPHOCYTE [3]: 14460 CELLS/uL
- ABSOLUTE MONOCYTE [3]: 391.33 CELLS/uL
- ABSOLUTE SEGMENTED NEUTROPHIL [3]: 1148.67 CELLS/uL
- BASOPHIL [3]: 0%
- EOSINOPHIL [3]: 0%
- ERYTHROCYTE COUNT [3]: 5.53 x10E6/uL
- HEMATOCRIT [3]: 35.03%
- HEMOGLOBIN [3]: 14 G/DL
- LEUKOCYTE COUNT [3]: 16 x10E3/uL
- LYMPHOCYTE [3]: 90%
- MEAN CORPUSCULAR HEMOGLOBIN [3]: 25.33 pg
- MEAN CORPUSCULAR HEMOGLOBIN CONCENTRATION [3]: 40 G/DL
- MEAN CORPUSCULAR VOLUME [3]: 63.37 fL
- MONOCYTE [3]: 2.33%
- NEUTROPHIL [3]: 7.67%
- NUCLEATED RED BLOOD CELLS [3]: 0 /100WBC
- PLATELET COUNT [3]: 1206.67 x10E3/uL
- ALANINE AMINOTRANSFERASE [3]: 47.67 u/L
- ALBUMIN [3]: 4.17 G/DL
- ALKALINE PHOSPHATASE [3]: 377.33 u/L
- ASPARTATE AMINOTRANSFERASE [3]: 90 u/L
- BLOOD UREA NITROGEN [3]: 13.33 mg/dL
- CARBON DIOXIDE [3]: 31.67 mmol/L
- CHLORIDE [3]: 102.33 MEQ/L
- CHOLESTEROL [3]: 67 mg/dL
- CREATINE PHOSPHOKINASE [3]: 444.67 u/L
- CREATININE [3]: 0.13 mg/dL
- GLUCOSE [3]: 137.33 mg/dL
- LACTATE DEHYDROGENASE [3]: 367.33 u/L
- LIPASE [3]: 11.67 u/L
- PHOSPHORUS [3]: 12.1 mg/dL
- POTASSIUM [3]: 6.36 MEQ/L
- SODIUM [3]: 145.43 MEQ/L
- TOTAL BILIRUBIN [3]: 0.17 mg/dL
- TOTAL PROTEIN [3]: 5.9 G/DL
- URIC ACID [3]: 1.6 mg/dL
